Patent US11718631B2, “Sulphonamides and compositions thereof for treating conditions associated with NLRP activity” (Novartis AG, priority 2017, dated 2023)
Read-outs that look alike come from different tables or passages of the source.

Target: T1, NLRP3 (Homo sapiens, UniProt Q96P20)
T1 construct: IL-1β Production in PMA-Differentiated THP-1 Cells Stimulated with Gramicidin; host or cells: THP-1 cells, PMA-differentiated
Experiment: IL-1β production in PMA-differentiated THP-1 cells stimulated with gramicidin (hTHP-1 assay)
Assay type: cell-based
Conditions: hTHP-1 assay containing 2% fetal bovine serum, read-out: NLRP3 Antagonist, human THP1 NLRP3, IL-1b, Normalized: GeoMean IC50
Procedure: IL-1β Production in PMA-Differentiated THP-1 Cells Stimulated with Gramicidin.
THP-1 cells were purchased from the American Type Culture Collection and sub-cultured according to instructions from the supplier. […] Prior to the experiment THP-1 were treated with PMA (Phorbol 12-myristate 13-acetate) (20 ng/ml) for 16-18 hours. On the day of the experiment the media was removed and adherent cells were detached with trypsin for 5 minutes. […] A vehicle only control was run concurrently with each experiment. Final DMSO concentration was 0.38%.
THP-1 cells were purchased from the American Type Culture Collection and sub-cultured according to instructions from the supplier. […] Prior to the experiment THP-1 were treated with PMA (Phorbol 12-myristate 13-acetate) (20 ng/ml) for 16-18 hours. Compounds were dissolved in dimethyl sulfoxide (DMSO) to generate a 30 mM stock. On the day of the experiment the media was removed and adherent cells were detached with trypsin for 5 minutes. […] Final DMSO concentration was at 0.37%. Cells were incubated with compounds for 1 hour and then stimulated with gramicidin (5 μM) (Enzo) for 2 hours. Plates were then centrifuged at 340 g for 5 min. Cell free supernatant (40 μL) was collected using a 96-channel PlateMaster (Gilson) and the production of IL-1p was evaluated by HTRF (cisbio).
IL-1p Production in PMA-Differentiated THP-1 Cells Stimulated with Gramicidin.
THP-1 cells were purchased from the American Type Culture Collection and sub-cultured according to instructions from the supplier. […] Prior to the experiment, compounds were dissolved in dimethyl sulfoxide (DMSO) to generate a 30 mM stock. […] DMSO was backfilled in the plate to achieve a final DMSO assay concentration of 0.37%. The plate was then sealed and stored at room temperature until required.
THP-1 cells were treated with PMA (Phorbol 12-myristate 13-acetate) (20 ng/ml) for 16-18 hours. On the day of the experiment the media was removed and adherent cells were detached with trypsin for 5 minutes. […] The plates were incubated for 18 h at 4° C. and read using the preset HTRF program (donor emission at 620 nm, acceptor emission at 668 nm) of the SpectraMax i3x spectrophotometer (Molecular Devices, software SoftMax 6).

[1] = average IC50, given as numeric bound

T1 sequence (Q96P20 whole entry): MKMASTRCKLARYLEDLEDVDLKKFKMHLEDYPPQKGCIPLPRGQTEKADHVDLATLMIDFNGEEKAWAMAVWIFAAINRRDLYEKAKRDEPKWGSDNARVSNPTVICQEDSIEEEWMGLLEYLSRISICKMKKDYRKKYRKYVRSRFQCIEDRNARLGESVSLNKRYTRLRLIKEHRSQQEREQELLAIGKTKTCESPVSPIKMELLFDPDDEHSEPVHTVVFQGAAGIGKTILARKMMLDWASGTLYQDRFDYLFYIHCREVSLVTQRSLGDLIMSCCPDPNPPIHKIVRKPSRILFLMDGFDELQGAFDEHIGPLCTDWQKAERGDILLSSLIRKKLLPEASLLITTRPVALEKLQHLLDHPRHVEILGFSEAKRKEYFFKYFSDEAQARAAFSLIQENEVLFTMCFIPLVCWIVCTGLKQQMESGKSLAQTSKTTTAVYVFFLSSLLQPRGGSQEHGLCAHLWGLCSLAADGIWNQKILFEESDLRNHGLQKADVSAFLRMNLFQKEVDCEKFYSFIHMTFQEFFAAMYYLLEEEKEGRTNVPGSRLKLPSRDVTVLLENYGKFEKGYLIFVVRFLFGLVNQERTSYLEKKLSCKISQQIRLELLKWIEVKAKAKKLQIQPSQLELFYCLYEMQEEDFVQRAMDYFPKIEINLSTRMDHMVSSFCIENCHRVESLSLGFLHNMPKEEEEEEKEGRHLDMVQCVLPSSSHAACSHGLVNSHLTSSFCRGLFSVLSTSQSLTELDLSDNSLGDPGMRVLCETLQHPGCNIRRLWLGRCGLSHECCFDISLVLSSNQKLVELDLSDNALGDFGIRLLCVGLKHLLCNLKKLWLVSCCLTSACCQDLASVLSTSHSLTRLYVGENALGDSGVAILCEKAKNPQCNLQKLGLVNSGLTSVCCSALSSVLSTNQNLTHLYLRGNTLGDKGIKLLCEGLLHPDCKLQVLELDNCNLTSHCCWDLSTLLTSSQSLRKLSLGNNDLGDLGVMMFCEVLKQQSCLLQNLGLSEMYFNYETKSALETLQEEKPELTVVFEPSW

| IC50 (average IC50, class symbols) [µM] | IC50 [1] [µM] | Structure (SMILES) |
| --- | --- | --- |
| 5 to 30 | – | CC(C)c1cc(-c2ccccc2S(C)(=O)=O)cc(C(C)C)c1CC(=O)NS(=O)(=O)c1ccc(CN(C)C)cc1 [Compound 125, N-[4-[(dimethylamino)methyl]phenyl] sulfonyl-2-[4-(2-methylsulfonyl-phenyl)-2,6-di(propan-2-yl)phenyl]acetamide] |
| 1 to 5 | – | C/C=C(\C)c1cc(C(C)C)c(CC(=O)NS(=O)(=O)c2ccc(CN(C)C)cc2)c(C(C)C)c1 [Compound 145] |
| 1 to 5 | – | CC(C)c1cc(-c2ccc(Cl)c(F)c2)cc(C(C)C)c1CC(=O)NS(=O)(=O)c1ccc(CN(C)C)cc1 [Compound 120, 2-[4-(4-chloro-3-fluorophenyl)-2,6-di(propan-2-yl)phenyl]-N-[4-[(dimethylamino)methyl]phenyl] sulfonylacetamide] |
| 1 to 5 | – | Cc1ccc(-c2cc(C(C)C)c(CC(=O)NS(=O)(=O)c3ccc(CN(C)C)cc3)c(C(C)C)c2)cc1 [Compound 110, N-[4-[(dimethylamino)methyl]phenyl] sulfonyl-2-[4-(4-methylphenyl)-2,6-di(propan-2-yl)phenyl] acetamide] |
| 0.2 to 1 | – | Cc1ccc(-c2cc(C(C)C)c(CC(=O)NS(=O)(=O)c3ccc(CN(C)C)cc3)c(C(C)C)c2)cc1C [Compound 118, N-[4-[(dimethylamino)methyl]phenyl] sulfonyl-2-[4-(3,4-dimethylphenyl)-2,6-di(propan-2-yl)phenyl]acetamide] |
| 0.04 to 0.2 | – | CC(C)c1cc(-c2ccc3ccccc3c2)cc(C(C)C)c1CC(=O)NS(=O)(=O)c1ccc(CN(C)C)cc1 [Compound 139, N-[4-[(dimethylamino)methyl]phenyl] sulfonyl-2-[4-naphthalen-2-yl-2,6-di(propan-2-yl)phenyl] acetamide] |
| 1 to 5 | – | CC(C)c1cc(CC2=CCCCC2)cc(C(C)C)c1CC(=O)NS(=O)(=O)c1ccc(CN(C)C)cc1 [Compound 377, 2-[4-(cyclohex-1-en-1-ylmethyl)-2,6-bis(propan-2-yl)phenyl]-N-{4-[(dimethylamino)methyl]benzenesulfonyl}acetamide] |
| 5 to 30 | – | CC(C)c1cc(-c2ccccc2CO)cc(C(C)C)c1CC(=O)NS(=O)(=O)c1ccc(CN(C)C)cc1 [Compound 124, N-[4-[(dimethylamino)methyl]phenyl] sulfonyl-2-[4-[2-(hydroxymethyl)phenyl]-2,6-di(propan-2-yl)phenyl]acetamide] |
| 0.2 to 1 | – | CC(C)c1cc(-c2ccc3c(c2)OC(F)(F)O3)cc(C(C)C)c1CC(=O)NS(=O)(=O)c1ccc(CN(C)C)cc1 [Compound 113, 2-[4-(2,2-difluoro-1,3-benzodioxol-5-yl)-2,6-di(propan-2-yl)phenyl]-N-[4-[(dimethylamino)methyl]phenyl] sulfonylacetamide] |
| 0.2 to 1 | – | Cc1cc(-c2cc(C(C)C)c(CC(=O)NS(=O)(=O)c3ccc(CN(C)C)cc3)c(C(C)C)c2)ccc1Cl [Compound 146] |
| – | > 30 | CC(C)c1cc(C(O)c2ccccc2)cc(C(C)C)c1CC(=O)NS(=O)(=O)c1ccc(CN(C)C)cc1 (stereo not drawn) [Compound 372, N-{4-[(dimethylamino)methyl]benzenesulfonyl}-2-(4-[hydroxy(phenyl)methyl]-2,6-bis(propan-2-yl)phenyl)acetamide] |
| 1 to 5 | – | CC(C)c1cc(-c2cccc3cccnc23)cc(C(C)C)c1CC(=O)NS(=O)(=O)c1ccc(CN(C)C)cc1 [Compound 114] |
| 1 to 5 | – | CC(C)c1cc(Br)cc(C(C)C)c1CC(=O)NS(=O)(=O)c1ccc(CN(C)C)cc1 [Compound 148] |

Second part, the compound before the results:

| Structure (SMILES) | IC50 (average IC50, class symbols) [µM] | IC50 [1] [µM] |
| --- | --- | --- |
| CC(C)c1cc(C2CCc3ccccc32)cc(C(C)C)c1CC(=O)NS(=O)(=O)c1ccc(CN(C)C)cc1 (stereo not drawn) [Compound 322, 2-[4-(2,3-dihydro-1H-inden-1-yl)-2,6-bis(propan-2-yl)phenyl]-N-{4-[(dimethylamino)methyl]benzene-sulfonyl}acetamide] | 0.2 to 1 | – |
| CC(C)c1cc(C#CC2CCCC2)cc(C(C)C)c1CC(=O)NS(=O)(=O)c1ccc(CN(C)C)cc1 [Compound 370, 2-[4-(2-cyclopentylethynyl)-2,6-bis(propan-2-yl)phenyl]-N-{4-[(dimethylamino)methyl]benzene-sulfonyl}acetamide] | 0.04 to 0.2 | – |
| Cc1cc(-c2cc(C(C)C)c(CC(=O)NS(=O)(=O)c3ccc(CN(C)C)cc3)c(C(C)C)c2)ccc1F [Compound 101] | 0.2 to 1 | – |
| CC(C)c1cc(C2CCOC2)cc(C(C)C)c1CC(=O)NS(=O)(=O)c1ccc(CN(C)C)cc1 (stereo not drawn) [Compound 315, N-{4-[(dimethylamino)methyl]benzene-sulfonyl}-2-[4-(oxolan-3-yl)-2,6-bis(propan-2-yl)phenyl]acetamide] | – | > 30 |
| CC(C)c1cc(-c2cccc(Cl)c2)cc(C(C)C)c1CC(=O)NS(=O)(=O)c1ccc(CN(C)C)cc1 [Compound 108, 2-[4-(3-chlorophenyl)-2,6-di(propan-2-yl)phenyl]-N-[4-[(dimethylamino)methyl]phenyl] sulfonylacetamide] | 0.2 to 1 | – |
| COc1ccccc1-c1cc(C(C)C)c(CC(=O)NS(=O)(=O)c2ccc(CN(C)C)cc2)c(C(C)C)c1 [Compound 121, N-[4-[(dimethylamino)methyl]phenyl] sulfonyl-2-[4-(2-methoxyphenyl)-2,6-di(propan-2-yl)phenyl] acetamide] | 1 to 5 | – |
| CC(C)c1cc(C2=CCCC2)cc(C(C)C)c1CC(=O)NS(=O)(=O)c1ccc(CN(C)C)cc1 [Compound 107, 2-[4-(cyclopenten-1-yl)-2,6-di(propan-2-yl)phenyl]-N-[4-[(dimethylamino)methyl]phenyl] sulfonylacetamide] | 1 to 5 | – |
| CC(C)c1cc(-c2cnn(C)c2)cc(C(C)C)c1CC(=O)NS(=O)(=O)c1ccc(CN(C)C)cc1 [Compound 106, N-[4-[(dimethylamino)methyl]phenyl] sulfonyl-2-[4-(1-methylpyrazol-4-yl)-2,6-di(propan-2-yl)phenyl] acetamide] | – | > 30 |
| CC(C)c1cc(C#CC2CCCCC2)cc(C(C)C)c1CC(=O)NS(=O)(=O)c1ccc(CN(C)C)cc1 [Compound 324, 2-[4-(2-cyclohexylethynyl)-2,6-bis(propan-2-yl)phenyl]-N-{4-[(dimethylamino)methyl]benzene-sulfonyl}acetamide] | 0.04 to 0.2 | – |
| CC(C)c1cc(Cl)cc(C(C)C)c1CC(=O)NS(=O)(=O)c1ccc(CN(C)C)cc1 [Compound 149] | 1 to 5 | – |
| CC(C)c1cc(CC2CCCCC2)cc(C(C)C)c1CC(=O)NS(=O)(=O)c1ccc(CN(C)C)cc1 [Compound 378, 2-[4-(cyclohexylmethyl)-2,6-bis(propan-2-yl)phenyl]-N-{4-[(dimethylamino)methyl]benzenesulfonyl}acetamide] | 5 to 30 | – |
| CC(C)c1cc(C2CCC(C)(C)CC2)cc(C(C)C)c1CC(=O)NS(=O)(=O)c1ccc(CN(C)C)cc1 [Compound 316, N-{4-[(dimethylamino)methyl]benzene-sulfonyl}-2-[4-(4,4-dimethylcyclohexyl)-2,6-bis(propan-2-yl)phenyl]acetamide] | 1 to 5 | – |
| CC(C)c1cc(C2CCCc3ccccc32)cc(C(C)C)c1CC(=O)NS(=O)(=O)c1ccc(CN(C)C)cc1 (stereo not drawn) [Compound 321, 2-[2,6-bis(propan-2-yl)-4-(1,2,3,4-tetrahydronaphthalen-1-yl)phenyl]-N-{4-[(dimethylamino)methyl]benzene-sulfonyl}acetamide] | 1 to 5 | – |
| CC(C)c1cc(C#CC2CCOCC2)cc(C(C)C)c1CC(=O)NS(=O)(=O)c1ccc(CN(C)C)cc1 [Compound 313, N-{4-[(dimethylamino)methyl]benzene-sulfonyl}-2-{4-[2-(oxan-4-yl)ethynyl]-2,6-bis(propan-2-yl)phenyl}acetamide] | 1 to 5 | – |
| CC(C)c1cc(-c2ccccc2OCc2ccccc2)cc(C(C)C)c1CC(=O)NS(=O)(=O)c1ccc(CN(C)C)cc1 [Compound 102, N-[4-[(dimethylamino)methyl]phenyl] sulfonyl-2-[4-(2-phenylmethoxy-phenyl)-2,6-di(propan-2-yl)phenyl]acetamide] | 5 to 30 | – |
| C#Cc1cc(C(C)C)c(CC(=O)NS(=O)(=O)c2ccc(C(C)N(C)C)cc2)c(C(C)C)c1 (stereo not drawn) [Compound 379] | 1 to 5 | – |
| CC(C)c1cc(C2Cc3ccccc3C2)cc(C(C)C)c1CC(=O)NS(=O)(=O)c1ccc(CN(C)C)cc1 [Compound 323, 2-[4-(2,3-dihydro-1H-inden-2-yl)-2,6-bis(propan-2-yl)phenyl]-N-{4-[(dimethylamino)methyl]benzene-sulfonyl}acetamide] | 1 to 5 | – |
